Assay results taken from patent US9827229B2, “Small molecule securinine and norsecurinine analogs and their use in cancers, inflammatory diseases and infections” (INVENIO THERAPEUTICS INC., priority 2013, dated 2017).
Read-outs that look alike come from different tables or passages of the source.

Legend:
HL60 cells [1] = assay: Growth of HL60 cells (IC50); assay type: cell-based, human
Procedure: (§1) The analogs were then tested and evaluated on the ability to affect differentiation and growth of HL60 cells.

HL60 cells [2] = assay: Differentiation of HL60 cells (Dif50); assay type: cell-based, human; conditions: Homo sapiens, HL-60, HL-60 cells, differentiation; no unit in head or cell (other cells of the column print uM); read-out: HL-60, Dif50
Text: The tested compounds and their respective results are produced in Table 1. Those skilled in the art will appreciate that combining the securinine and/or norsecurinine analogs with other differentiation inducing agents, such as all-trans retinoic acid, cytarabine and/or an anthracycline, would be of further benefit. Those skilled in the art will appreciate that inducing differentiation may further reduce oxidative damage due to lower presence of radical inducing enzymes (see, e.g., Yamada et al. J Biol Chem 259(5)3021-3025 (1984) and Weil et al., PNAS 84:2057-2061 (1987)).
as §1

[3] = read-out: HL-60, IC50, HL-60 cells, growth, no unit in head or cell (other cells of the column print uM)
[4] = Homo sapiens, HL-60, HL-60 cells, growth, no unit in head or cell (other cells of the column print uM), read-out: HL-60, IC50
[5] = Homo sapiens, HL-60, read-out: HL-60, IC50, HL-60 cells, growth, no unit in head or cell (other cells of the column print uM)

O=C1C=C2C(C#Cc3cc4ccccc4c4ccccc34)=C[C@@H]3C[C@@]2(O1)[C@H]1CCCCN31 [INVS-MG-158-V]
IC50 (HL60 cells [1]; [3]): < 5 µM

O=C1C=C2C(C#Cc3ccc([N+](=O)[O-])cc3)=C[C@@H]3C[C@@]2(O1)[C@H]1CCCCN31 [INVS-MG-176B]
IC50 (HL60 cells [1]; [4]): 0.31 to 0.625 µM

O=C1C=C2C3C=CCC2(O1)C1CCCCN1O3 (stereo not shown) [INV-SZ-125-1]
IC50 (HL60 cells [1]; [4]): < 5 µM

COC(OC)[C@H]1CC[C@H]2N1[C@@H]1C=C(C#Cc3ccc(CO)cc3)C3=CC(=O)O[C@@]32C1 [INVS-MG-224A]
IC50 (HL60 cells [1]; [4]): 0.156 to 0.31 µM

O=C1C=C2CC(S(=O)(=O)c3ccccc3)[C@@H]3C[C@@]2(O1)[C@H]1CCCCN31 (stereo partly shown) [INVS-MG-184B]
EC50 (HL60 cells [2]): 5 to 7.5 µM

O=C1C=C2C(/C=C(\C#CCCCCl)CCCCl)=C[C@@H]3C[C@@]2(O1)[C@H]1CCCCN31 [INVS-MG-119B]
IC50 (HL60 cells [1]; [4]): 1.25 to 2.5 µM

CC1CC2=CC(=O)O[C@@]23C[C@@H]1N1CCCC[C@@H]13 (stereo partly shown) [Sec-18 & Sec-20]
EC50 (HL60 cells [2]): 20 to 30 µM

O=C1C=C2C3C=CCC2(O1)C1CCC=CN1O3 (stereo not shown) [INV-SZ-125-3]
IC50 (HL60 cells [1]; [4]): < 5 µM

O=C1C=C2CC(S(=O)Oc3ccccc3)[C@@H]3C[C@@]2(O1)[C@H]1CCCCN31 (stereo partly shown) [Sec-19]
EC50 (HL60 cells [2]): 20 to 30 µM

O=C1C=C2C(C#Cc3cccc[n+]3[O-])=CC3CC2(O1)C1CCCCN31 (stereo not shown) [INV-SZ-116-1]
IC50 (HL60 cells [1]; [4]): 2.5 to 5 µM

CCN(CC)CCSC1CC2=CC(=O)O[C@@]23C[C@@H]1N1CCCC[C@@H]13 (stereo partly shown) [INVS-MG-60]
EC50 (HL60 cells [2]): 15 to 20 µM

O=C1C=C2C(C#Cc3cc4ccccc4c4ccccc34)=C[C@@H]3C[C@@]2(O1)[C@H]1CCCCN31 [INVS-MG-158-VI]
IC50 (HL60 cells [1]; [5]): 0.156 to 0.31 µM

CCCCC1C(/C=C/c2ccc(OC)cc2)C2=CC(=O)O[C@@]23C[C@@H]1N1CCCC[C@@H]13 (stereo partly shown) [INVS-MG-163-IIB]
IC50 (HL60 cells [1]; [4]): < 10 µM

O=C1C=C2C(C#CCO)=CC3CC2(O1)C1CCCCN31 (stereo not shown) [INV-SZ-133-1]
IC50 (HL60 cells [1]; [4]): 1.25 to 2.5 µM

CS(=O)(=O)NCC#CC1=CC2CC3(OC(=O)C=C13)C1CCCCN21 (stereo not shown) [INV-SZ-137-1]
IC50 (HL60 cells [1]; [4]): 0.07 to 0.15 µM

COC(OC)[C@H]1CC[C@H]2N1[C@@H]1C=C(C#Cc3cc4ccccc4c4ccccc34)C3=CC(=O)O[C@@]32C1 [INVS-MG-220B]
IC50 (HL60 cells [1]; [5]): 0.156 µM

O=C1C=C2C(I)=C[C@@H]3C[C@@]2(O1)[C@H]1CCCCN31 [INVS-MG-84]
IC50 (HL60 cells [1]; [3]): > 2.5 µM

COc1ccc(C#CC2=C[C@@H]3C[C@@]4(OC(=O)C=C24)[C@H]2CC[C@H](C(OC)OC)N32)cc1OC [INVS-MG-223B]
IC50 (HL60 cells [1]; [4]): 0.156 to 0.31 µM

COC(OC)[C@H]1CC[C@H]2N1[C@@H]1C=CC3=CC(=O)O[C@@]32C1 [INVS-MG-99-IVD-I]
IC50 (HL60 cells [1]; read-out: HL-60, IC50, HL-60 cells, growth): > 5 µM

O=C1C=C2C=CC3CC2(O1)C1CCC(CO)N31 (stereo not shown) [INV-SZ-132-2]
IC50 (HL60 cells [1]; [4]): 0.3 to 0.6 µM

O=C1C=C2C(C#CCc3ccccc3)=C[C@@H]3C[C@@]2(O1)[C@H]1CCCCN31 [INVS-MG-108-IIB]
IC50 (HL60 cells [1]; [4]): 0.31 to 0.625 µM

C#CC1=C[C@@H]2C[C@@]3(OC(=O)C=C13)[C@H]1CCCCN21 [INVS-MG-207A]
IC50 (HL60 cells [1]; [4]): 0.07 to 0.156 µM

O=C1C=C2C(C#Cc3cc(C(F)(F)F)cc(C(F)(F)F)c3)=C[C@@H]3C[C@@]2(O1)[C@H]1CCCCN31 [INVS-MG-149B′]
IC50 (HL60 cells [1]; [4]): 1.25 to 2.5 µM

O=C1C=C2C=CC3CC2(O1)C1=C(Br)CCCN13 (stereo not shown) [INV-SZ-118-2]
IC50 (HL60 cells [1]; [5]): 0.31 to 0.62 µM

C[Si](C)(C)C#CC1=C[C@@H]2C[C@@]3(OC(=O)C=C13)[C@H]1CCCCN21 [INVS-MG-207-IIIA]
IC50 (HL60 cells [1]; [5]): 1.25 to 2.5 µM

[N-]=[N+]=Nc1ccc(C#CC2=C[C@@H]3C[C@@]4(OC(=O)C=C24)[C@H]2CCCCN32)cc1 [INVS-MG-193-III]
IC50 (HL60 cells [1]; [4]): 0.156 to 0.31 µM

COC(OC)C1CCC2N1C1C=C(C#Cc3cccnc3)C3=CC(=O)OC32C1 (stereo not shown) [INV-SZ-114-1]
IC50 (HL60 cells [1]; [4]): 0.07 to 0.15 µM

CCCN(CC#CC1=C[C@@H]2C[C@@]3(OC(=O)C=C13)[C@H]1CCCCN21)CCC [INVS-MG-152-III]
IC50 (HL60 cells [1]; HL-60 cells, growth, no unit in head or cell (other cells of the column print uM), read-out: HL-60, IC50): < 0.03 µM

CCCCCCCCC#CC1=C[C@@H]2C[C@@]3(OC(=O)C=C13)[C@H]1CCCCN21 [INVS-MG-118-IIB]
IC50 (HL60 cells [1]; [4]): 2.5 to 5 µM

COC(OC)C1CCC2N1C1C=C(C#Cc3ccccc3)C3=CC(=O)OC32C1 (stereo not shown) [INV-SZ-123-2]
IC50 (HL60 cells [1]; [4]): 0.37 to 0.75 µM

COC(OC)[C@H]1CC[C@H]2N1[C@@H]1C=CC3=CC(=O)O[C@@]32C1 [INVS-MG-99D = 52D]
IC50 (HL60 cells [1]; [5]): 0.31 to 0.625 µM

COC(OC)C1CCC2N1C1C=C(C#CCO)C3=CC(=O)OC32C1 (stereo not shown) [INV-SZ-136-1]
IC50 (HL60 cells [1]; [4]): 0.15 to 0.31 µM

O=C1C=C2C(C#CCCCCl)=C[C@@H]3C[C@@]2(O1)[C@H]1CCCCN31 [INVS-MG-119A]
IC50 (HL60 cells [1]; [4]): 0.625 to 1.25 µM

COc1ccc2cc(C#CC3=C[C@@H]4C[C@@]5(OC(=O)C=C35)[C@H]3CCCCN43)ccc2c1 [INVS-MG-157-III]
IC50 (HL60 cells [1]; [4]): 0.07 to 0.156 µM
